In patent publication US20230200390A1, “SELECTIVE HERBICIDES BASED ON SUBSTITUTED ISOXAZOLIN CARBOXAMIDES AND MEFENPYR-DIETHYL” (BAYER AKTIENGESELLSCHAFT, priority 2020, published 2023):

Assays:
Format in all cases: in vivo
[1] = tested on: spring barley, HORVS Montoya; assay: Tank-mix; post-emergence: crop damage by herbicide with/without safener mefenpyr-diethyl
Experimental: (§1) Seeds of crops (spring wheat, TRZAS; spring barley, HORVS; maize, ZEAMA) were placed in sandy loam soil in peat pots, covered with soil and cultivated in a greenhouse under good growth conditions. Two to three weeks after sowing, the test plants were treated at the 1 to 3-leaf stage. The herbicide/safener active compound combinations according to the invention, formulated as wettable powders or emulsion concentrates, and, in parallel tests, the correspondingly formulated individual active compounds were sprayed onto the green parts of the plants in various dosages using an amount of water of 300 l/ha (converted).
(§2) The pots were returned under good growing conditions in a glasshouse and a visual assessment of herbicidal effects was made at intervals from 1 to 3 weeks after herbicide application (DAT=days after treatment). Assessment was on a percentage basis in comparison with untreated control plants (0%=no injury, 100%=complete kill).

[2] = tested on: spring wheat, TRZAS Triso; assay: as above
Experimental: as §1, §2

[3] = tested on: spring barley, HORVS Montoya; assay: Seed treatment with safener; post-emergence herbicide, crop damage; details: for HER effect + SAF / Reduction [%] / Reduction [Difference]: mefenpyr-diethyl 0.5 g a.i./kg seed
Description: (§3) For safener seed treatment trials, sufficient seed amounts of the respective crops (spring wheat (TRZAS); spring barley (HORVS)) were weighed into screw cap glass bottles with a minimum volume trice of the seeds.
(§4) As a first step, specified safeners formulated as wettable powder (WP) or wettable granules (WG) were weighed out for the required dosages (g a.i./kg seed), corresponding to the seed amounts. The safener amounts were mixed with a coloured slurry blind formulation type, prediluted with milk at 3.5% fat rate (25 mgs slurry formulation plus 2 ml milk per 10 grams of seed). A tube roller was used for coating. The solutions were gradually pipetted each on the rotating seeds followed by coating for min. 3 hours until all liquid had been soaked up by the seeds. Thereafter, the coated seeds were put flat on open trays for drying over night at room temperature.
(§5) Treated seeds were then placed into pots (7 cm diameter) on the surface of sandy loam, pressed down, flat covered with additional soil and finally covered with sandy soil, also pressed down, watered, and kept under good growth conditions in a greenhouse, until the plants had reached 2-leaf-stage (BBCH 12).
(§6) At that stage, post-emergence application of the specified herbicides was done on:
(§7) a) pot sets containing plants with safener-coated seeds as described above,
(§8) b) as a reference, pot sets of plants without seed treatment.
(§9) The herbicides were formulated as wettable powder (WP). Equivalent to the spray area, compound amounts were weighed out and diluted related to the water application rate (300 l/ha) to an aqueous suspension plus additive (1 l/ha MERO). Dosage related equivalents were conventionally sprayed on trays with the potted plants.
(§10) After application, the test plants were kept under good growth conditions in a greenhouse.
(§11) Assessment timings were 10 and 21 days after treatment (DAT) with the herbicide, by visual scoring of the crop damage in % (comparison of untreated with treated plants, either sprayed only with herbicide or with herbicide on plants with treated seeds).

[4] = tested on: spring wheat, TRZAS Triso; assay: as above; details: for HER effect + SAF [%] (crop damage) / Reduction [%] / Reduction [Difference]: mefenpyr-diethyl 0.5 g a.i./kg seed; for HER effect [%] (crop damage, herbicide without safener): no safener
Description: as §3, §4, §5, §6, §7, §8, §9, §10, §11

[5] = HER 8 g a.i./ha + mefenpyr-diethyl 50 g a.i./ha, 21 DAT
[6] = HER 32 g a.i./ha + mefenpyr-diethyl 100 g a.i./ha, 21 DAT
[7] = herbicide alone 8 g a.i./ha, 21 DAT
[8] = HER 8 g a.i./ha + mefenpyr-diethyl 50 g a.i./ha, 10 DAT
[9] = HER 32 g a.i./ha + mefenpyr-diethyl 100 g a.i./ha, 10 DAT
[10] = herbicide alone 8 g a.i./ha, 10 DAT
[11] = herbicide alone 32 g a.i./ha, 10 DAT
[12] = HER 8 g a.i./ha post-emergence, 21 DAT
[13] = HER 32 g a.i./ha post-emergence, 21 DAT
[14] = HER 2 g a.i./ha + mefenpyr-diethyl 50 g a.i./ha, 21 DAT
[15] = HER 8 g a.i./ha post-emergence, 10 DAT
[16] = HER 32 g a.i./ha post-emergence, 10 DAT
[17] = HER 4 g a.i./ha + mefenpyr-diethyl 50 g a.i./ha, 10 DAT
[18] = HER 16 g a.i./ha + mefenpyr-diethyl 100 g a.i./ha, 10 DAT
[19] = herbicide alone 4 g a.i./ha, 10 DAT
[20] = herbicide alone 16 g a.i./ha, 10 DAT

## COC(=O)C1C=CC(NC(=O)C2(C)CC(c3cccc(F)c3)=NO2)C1 (centres unmarked) [Example 1.20]
[1]; [5]
  HER effect + SAF: 0%
  Reduction [%]: 100%
  Reduction [Difference]: 30
[1]; [6]
  HER effect + SAF: 40%
  Reduction [%]: 50%
  Reduction [Difference]: 40
[1]; [7]
  HER effect: 30%
[1]; herbicide alone 32 g a.i./ha, 21 DAT
  HER effect: 80%
[2]; [8]
  HER effect + SAF: 0%
  Reduction [%]: 100%
  Reduction [Difference]: 20
[2]; [9]
  HER effect + SAF: 30%
  Reduction [%]: 40%
  Reduction [Difference]: 20
[2]; [10]
  HER effect: 20%
[2]; [11]
  HER effect: 50%
[3]; [12]
  HER effect + SAF: 10%
  Reduction [%]: 67%
  Reduction [Difference]: 20
[3]; [13]
  HER effect + SAF: 20%
  Reduction [%]: 75%
  Reduction [Difference]: 60
[3]; herbicide alone 8 g a.i./ha post-emergence, 21 DAT
  HER effect: 30%
[3]; herbicide alone 32 g a.i./ha post-emergence, 21 DAT
  HER effect: 80%
[4]; 10 DAT, HER dose 8 g a.i./ha
  HER effect + SAF [%] (crop damage): 0%
  Reduction [%]: 100%
  Reduction [Difference]: 20
  HER effect [%] (crop damage, herbicide without safener): 20%
[4]; 10 DAT, HER dose 32 g a.i./ha
  HER effect + SAF [%] (crop damage): 0%
  Reduction [%]: 100%
  Reduction [Difference]: 50
  HER effect [%] (crop damage, herbicide without safener): 50%

## COC(=O)C1COCC1NC(=O)C1(C)CC(c2cc(F)cc(F)c2)=NO1 (mixture of isomers) [Example 1.93]
[1]; [8]
  HER effect + SAF: 10%
  Reduction [%]: 88%
  Reduction [Difference]: 75
[1]; [9]
  HER effect + SAF: 30%
  Reduction [%]: 67%
  Reduction [Difference]: 60
[1]; [10]
  HER effect: 85%
[1]; [11]
  HER effect: 90%
[2]; [14]
  HER effect + SAF: 10%
  Reduction [%]: 88%
  Reduction [Difference]: 75
[2]; [5]
  HER effect + SAF: 50%
  Reduction [%]: 46%
  Reduction [Difference]: 43
[2]; herbicide alone 2 g a.i./ha, 21 DAT
  HER effect: 85%
[2]; [7]
  HER effect: 93%
[3]; [15]
  HER effect + SAF: 30%
  Reduction [%]: 65%
  Reduction [Difference]: 55
[3]; [16]
  HER effect + SAF: 70%
  Reduction [%]: 22%
  Reduction [Difference]: 20
[3]; herbicide alone 8 g a.i./ha post-emergence, 10 DAT
  HER effect: 85%
[3]; herbicide alone 32 g a.i./ha post-emergence, 10 DAT
  HER effect: 90%
[4]; 21 DAT, HER dose 2 g a.i./ha
  HER effect + SAF [%] (crop damage): 0%
  Reduction [%]: 100%
  Reduction [Difference]: 85
  HER effect [%] (crop damage, herbicide without safener): 85%
[4]; 21 DAT, HER dose 8 g a.i./ha
  HER effect + SAF [%] (crop damage): 10%
  Reduction [%]: 89%
  Reduction [Difference]: 83
  HER effect [%] (crop damage, herbicide without safener): 93%
[4]; 21 DAT, HER dose 32 g a.i./ha
  HER effect + SAF [%] (crop damage): 20%
  Reduction [%]: 79%
  Reduction [Difference]: 75
  HER effect [%] (crop damage, herbicide without safener): 95%

## CCOC(=O)C1CC(NC(=O)C2(C)CC(c3cccc(F)c3)=NO2)CO1 (mixture of isomers) [Example 1.67]
[1]; [17]
  HER effect + SAF: 0%
  Reduction [%]: 100%
  Reduction [Difference]: 30
[1]; [18]
  HER effect + SAF: 0%
  Reduction [%]: 100%
  Reduction [Difference]: 60
[1]; [19]
  HER effect: 30%
[1]; [20]
  HER effect: 60%
[2]; [17]
  HER effect + SAF: 10%
  Reduction [%]: 80%
  Reduction [Difference]: 40
[2]; [18]
  HER effect + SAF: 20%
  Reduction [%]: 71%
  Reduction [Difference]: 50
[2]; [19]
  HER effect: 50%
[2]; [20]
  HER effect: 70%
[4]; 10 DAT, HER dose 4 g a.i./ha
  HER effect + SAF [%] (crop damage): 10%
  Reduction [%]: 80%
  Reduction [Difference]: 40
  HER effect [%] (crop damage, herbicide without safener): 50%
[4]; 10 DAT, HER dose 16 g a.i./ha
  HER effect + SAF [%] (crop damage): 20%
  Reduction [%]: 71%
  Reduction [Difference]: 50
  HER effect [%] (crop damage, herbicide without safener): 70%
